Experimental data from patent EP2725073B1, “Antifouling coating composition” (Jotun A/S, priority 2012, dated 2014).

Assay: Determination of carbodiimide half-life by IR spectroscopy (reaction with acetic acid in xylene)
Format: physicochemical
Details: for Half-life: time for 50% of the carbodiimide compound to react with acetic acid in xylene at 23±2°C, carbodiimide absorption at 2100-2200 cm^-1; for Remarks: observation during reaction with acetic acid in xylene at 23±2°C
Procedure: In particular, the carbodiimides of the present invention have slower reactivity than those described in US2005/0255081A1. The reactivity of carbodiimide compounds can be expressed as the half-life, i.e. in this case the time it takes for 50% of the carbodiimide compound to react with the carboxylic acid.
The carbodiimide compound preferably has relatively slow reactivity. Reactivity is measured by way of the half-life of the carbodiimide, which is defined as the time taken for 50% of the carbodiimide compound to react with a carboxylic acid.
Solutions of the carbodiimide compounds and acetic acid in xylene are prepared. A carbodiimide solution and the acetic acid solution are mixed and the reaction between the carbodiimide compound and acetic acid at 23±2°C is monitored by following the carbodiimide absorption at 2100-2200 cm^-1 in an zinc selenide cell. The reaction is followed until approximately 50% of the carbodiimide compound has reacted.

SMILES | Half-life | Remarks
Cc1ccccc1N=C=Nc1ccccc1C [1,3-Di-o-methylphenylcarbodiimide] | 3 h | 
Cc1ccc(N=C=Nc2ccc(C)cc2)cc1 [1,3-Di-p-tolylcarbodiimide] | 2 h | 
C(=NC1CCCCC1)=NC1CCCCC1 [1,3-Dicyclohexylcarbodiimide] | 0.25 h | Precipitation of urea products
CC(C)N=C=NC(C)C [1,3-Diisopropylcarbodiimide] | 0.75 h | Precipitation of urea products
C[Si](C)(C)N=C=N[Si](C)(C)C [1,3-bis(trimethylsilyl)carbodiimide] |  | No reaction
CC(C)c1cccc(C(C)C)c1N=C=Nc1c(C(C)C)cccc1C(C)C [Bis(2,6-diisopropylphenyl) carbodiimide] | 30 h | 
